Measurements taken from article PMC11434980, “Deciphering Chemical Rules for Drug Penetration into Strongyloides” (Pharmaceutics, 2024).
pIC50: −log10 of the molar value.

test system: S. venezuelensis L3s; assay: microbe, parasite or virus in culture; conditions: L3 motility, 72 h of treatment
Description: (§1) Baerman-obtained S. venezuelensis L3s were rinsed twice with distilled water and counted, and 100 to 150 larvae were placed per well in 96-well flat-bottom culture plates. Larvae were incubated at 28 °C for 30 min to allow adaptation and treated with compounds in the range of 0.5–40 µM for 72 h at 28 °C in a humid atmosphere. Mortality was assessed as the lack of any movement detected during 1 min of observation under an inverted microscope (40×), at 24, 48, and 72 h after treatment. The ability to stain the larvae was pointed out when observed; at 72 h, larvae were collected and washed two times with distilled water and placed in a new well to remove the background color and photographed. Pictures were also taken at 24 and 48 h without cleaning the larvae so as not to interfere with the 72 h readout of the experiment. […] All experiments were conducted in triplicate and at least three different times. The antiparasitic activity of the compounds was expressed as the concentration that inhibited the motility of half of the larvae (immobilization concentration 50, IC50).
A total of 15 dyes were tested against S. venezuelensis L3s at a 20 µM concentration. The activity was determined by the number of larvae lacking motility relative to the total number in the well after 1 min of light excitation at 24, 48, and 72 h after treatment.

Structure (SMILES)	significant activity against the L3s
CN(C)c1ccc(N=Nc2ccc(S(=O)(=O)[O-])cc2)cc1.[Na+] [Methyl Orange]	did not show significant activity
Cc1c(C(=O)O)c(O)cc2c1C(=O)c1c(O)c(C3O[C@H](CO)[C@@H](O)[C@H](O)[C@H]3O)c(O)c(O)c1C2=O (stereo in doubt) [Carmine]	did not show significant activity
Nc1c(/N=N/c2ccc(-c3ccc(/N=N/c4cc(S(=O)(=O)O)c5ccccc5c4N)cc3)cc2)cc(S(=O)(=O)O)c2ccccc12 [Congo Red]	did not show significant activity
CC(=O)Oc1ccc2c(c1)Oc1cc(OC(C)=O)ccc1C21OC(=O)c2ccccc21 [Fluorescein Diacetate]	did not show significant activity
O=[N+]([O-])c1ccc2c(N=Nc3ccc4ccccc4c3O)c(O)cc(S(=O)(=O)[O-])c2c1.[Na+] [Eriochrome Black T]	did not show significant activity
Oc1cc2c(cc1O)[C@@H]1c3ccc(O)c(O)c3OC[C@]1(O)C2 [Hematoxylin]	did not show significant activity
Oc1ccc2ccccc2c1N=Nc1ccc(N=Nc2ccccc2)cc1 [Sudan III]	did not show significant activity
O=C1/C(=C2\Nc3ccc(S(=O)(=O)[O-])cc3C2=O)Nc2ccc(S(=O)(=O)[O-])cc21.[Na+].[Na+] [Indigo Carmine]	did not show significant activity

same assay, conditions: L3s, 20 µM, 72 h

Structure (SMILES)	Screening 20 µM 72 h
CN(C)c1ccc(N=Nc2ccc(S(=O)(=O)[O-])cc2)cc1.[Na+] [Methyl Orange]	No
Cc1c(C(=O)O)c(O)cc2c1C(=O)c1c(O)c(C3O[C@H](CO)[C@@H](O)[C@H](O)[C@H]3O)c(O)c(O)c1C2=O (stereo in doubt) [Carmine]	No
Nc1c(/N=N/c2ccc(-c3ccc(/N=N/c4cc(S(=O)(=O)O)c5ccccc5c4N)cc3)cc2)cc(S(=O)(=O)O)c2ccccc12 [Congo Red]	No
CC(=O)Oc1ccc2c(c1)Oc1cc(OC(C)=O)ccc1C21OC(=O)c2ccccc21 [Fluorescein Diacetate]	No
CCCCCCCCCCCCCCCCCCOCC(COP(=O)([O-])OCC[N+](C)(C)C)OC (centres unmarked) [Edelfosine]	No
O=[N+]([O-])c1ccc2c(N=Nc3ccc4ccccc4c3O)c(O)cc(S(=O)(=O)[O-])c2c1.[Na+] [Eriochrome Black T]	No
Oc1cc2c(cc1O)[C@@H]1c3ccc(O)c(O)c3OC[C@]1(O)C2 [Hematoxylin]	No
Oc1ccc2ccccc2c1N=Nc1ccc(N=Nc2ccccc2)cc1 [Sudan III]	No
O=C1/C(=C2\Nc3ccc(S(=O)(=O)[O-])cc3C2=O)Nc2ccc(S(=O)(=O)[O-])cc21.[Na+].[Na+] [Indigo Carmine]	No

same assay, conditions: read-out: IC50 72 h (immobilization concentration 50 of cultured L3s); L3s, 72 h

Structure (SMILES)	pIC50
CN(C)c1ccc(N=Nc2ccc(S(=O)(=O)[O-])cc2)cc1.[Na+] [Methyl Orange]	< 4.40
O=[N+]([O-])c1ccc2c(N=Nc3ccc4ccccc4c3O)c(O)cc(S(=O)(=O)[O-])c2c1.[Na+] [Eriochrome Black T]	< 4.40
Oc1ccc2ccccc2c1N=Nc1ccc(N=Nc2ccccc2)cc1 [Sudan III]	< 4.40
O=C1/C(=C2\Nc3ccc(S(=O)(=O)[O-])cc3C2=O)Nc2ccc(S(=O)(=O)[O-])cc21.[Na+].[Na+] [Indigo Carmine]	< 4.40

test system: S. venezuelensis L3s; assay: Staining (uptake) of L3 larvae by the dyes; type: cell-based, Strongyloides venezuelensis; conditions: not given
Description: as §1

Structure (SMILES)	Staining 72 h (L3 staining ability)
CN(C)c1ccc(N=Nc2ccc(S(=O)(=O)[O-])cc2)cc1.[Na+] [Methyl Orange]	No
Cc1c(C(=O)O)c(O)cc2c1C(=O)c1c(O)c(C3O[C@H](CO)[C@@H](O)[C@H](O)[C@H]3O)c(O)c(O)c1C2=O (stereo in doubt) [Carmine]	No
Nc1c(/N=N/c2ccc(-c3ccc(/N=N/c4cc(S(=O)(=O)O)c5ccccc5c4N)cc3)cc2)cc(S(=O)(=O)O)c2ccccc12 [Congo Red]	No
CC(=O)Oc1ccc2c(c1)Oc1cc(OC(C)=O)ccc1C21OC(=O)c2ccccc21 [Fluorescein Diacetate]	No
O=[N+]([O-])c1ccc2c(N=Nc3ccc4ccccc4c3O)c(O)cc(S(=O)(=O)[O-])c2c1.[Na+] [Eriochrome Black T]	No
Oc1cc2c(cc1O)[C@@H]1c3ccc(O)c(O)c3OC[C@]1(O)C2 [Hematoxylin]	No
Oc1ccc2ccccc2c1N=Nc1ccc(N=Nc2ccccc2)cc1 [Sudan III]	No
O=C1/C(=C2\Nc3ccc(S(=O)(=O)[O-])cc3C2=O)Nc2ccc(S(=O)(=O)[O-])cc21.[Na+].[Na+] [Indigo Carmine]	No
